{"source": "patent US20190079079A1", "about": "“3-D TISSUE CULTURE BASED METHOD TO ASSESS MITOCHONDRIAL IMPAIRMENT” (INSPHERO AG, priority 2016, published 2019)", "key": {"[1]": {"details": "categorized by Gustafsson et al; cited from earlier work"}, "[2]": {"test_system": "3D primary human hepatocytes microtissues (IPHH_02)", "experiment": "Seahorse XF Analyzer measurement of spare respiratory capacity (microtissue-specific respiration rate, MTSRR) after 48 h compound exposure", "details": "High: IC50_MTSRR<0.75×IC50_CV/CYT; Low: IC50_MTSRR<IC50_CV/CYT and ≥0.75×IC50_CV/CYT; No: IC50_MTSRR≥IC50_CV/CYT (CV/CYT by CellTiter-Glo)", "method": "(§1) B. Coating of Seahorse Spheroid plates • 20 uL of Poly-D-Lysine (100 ug/mL diluted in cell culture grade water) were added to each well of the Seahorse Spheroid plate (Incubation for 20min @ RT) • After coating, the Seahorse Spheroid plate was washed with 200 uL of sterile water and wash was removed (Washing step repeated once) • Seahorse Spheroid plate has been air dried for a few minutes\n(§2) D. Seahorse XF Analyzer Run • While cell incubation fill up the ports of the cartridge according to the Seahorse manufacturer's protocol • Setup groups and parameters for the measurement (basal: 7 cycles, oligomycin 2 uM: 6 cycles, FCCP 0.5 uM: 3 cycles, FCCP 1 uM: 3 cycles, Rot/AA 0.5 uM: 9 cycles) • Start the measurement\n(§3) DILI classification: Drug-induced liver injury according to Gustafsson et al, 2014 (N=negative, P=positive). CMax=concentration of candidate compound used in Gustafsson et al, 2014; CTop=concentration of candidate compound used herein; IC50CV/Cyt determined by the CellTiter-Glo Luminescent Cell Viability Assay (Promega, Madison, US) as disclosed herein, IC50MTSRR determined as inhibition on spare respiratory capacity (SPARE), as disclosed herein; MOS: Margin of safety; High Mito-toxic risk: IC5O_MTSRR<0.75×IC5O_CV/CYT; Low Mito-toxic risk: IC5O_MTSRR<IC5O_CV/CYT and IC5O_MTSRR≥0.75×IC5O_CV/CYT; No Mito-toxic risk: IC5O_MTSRR≥IC5O_CV/CYT"}, "[3]": {"test_system": "3D primary human hepatocytes microtissues (IPHH_02)", "method": "as §1, §2, §3"}}, "note": "Where a name gives a salt, the structure may show the parent alone. Read-outs that look alike come from different tables or passages of the source."}
{"molecule": "CN(C)C(=N)N=C(N)N", "note": "[Metformin HCl]", "values": [{"measurement": "DILI classification", "setting": "[1]", "result": "not liver toxic"}, {"measurement": "Mitochondrial toxicity risk", "setting": "[2]", "result": "low mitochondrial toxicity"}]}
{"molecule": "O=c1[nH]c(=O)n([C@@H]2O[C@H](CO)[C@@H](O)[C@@H]2F)cc1I", "note": "[Fialuridine]", "values": [{"measurement": "DILI classification", "setting": "[1]", "result": "liver toxic"}, {"measurement": "Mitochondrial toxicity risk", "setting": "[3]", "result": "not have specific mitochondrial toxicity"}]}
